Twelve compounds from PubChem BioAssay (NCI) can be followed below.

SMILES strings stand for the structures. “And” between values parts separate entries of the source, which are not always exact repeats. Equal values may be shown once.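 48-hour exposure; five concentrations; linearly interpolated endpoints. The concentration for 50% growth inhibition is given as GI50. TGI is the concentration that stops growth completely.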 Where only a bound is given, the exact number is not on record here.

Assay in all cases: NCI anticancer screen, dose series, 48 h
In experiment [1] the test system is CCRF-CEM leukemia.
Experiment [2] deals with EKVX NSCLC.
Experiment [3] deals with HCC-2998 colon.
Experiment [4] has as its system HCT-116 colon.
In experiment [5] the test system is K-562 leukemia.
In experiment [6] the test system is NCI-H460 lung.
Experiment [7] relates to OVCAR-8 ovarian.
The test system of experiment [8] is RPMI-8226 leukemia.
Experiment [9] deals with SN12C renal.
Experiment [10] concerns U251 CNS.
Experiment [11] relates to UO-31 renal.
Experiment [12] has as its system NCI-H522 lung.
Experiment [13] concerns SK-MEL-2 melanoma.

On to `CC(C)(C)OC(=O)C1C(=O)NC(=O)CC1C(OCc1ccccc1)C(OCc1ccccc1)C(COCc1ccccc1)OCc1ccccc1` (stereo not drawn), for which the GI50 in experiment [1] was > 100 µM and 49.1 µM; in experiment [4], > 100 µM and 48.1 µM; in [6], > 100 µM and 37.3 µM; in experiment [8] it was 78.7 µM and 23 µM; in [10] it was 68 µM and 14.4 µM; in [11] it was 42.6 µM and 10.5 µM. The TGI in experiment [1], in experiment [2], in experiment [3], in experiment [4], in [5] and in experiment [6] was over 100 µM each time. The TGI in [7] was over 100 µM; in [8], over 100 µM; in experiment [9], over 100 µM; in [10], over 100 µM; in experiment [11] it was > 100 µM and 30.3 µM.

In the case of `COC(=O)/C(=C(/C)c1ccco1)P(=O)(OC)OC`, the TGI in experiment [1], in [2], in experiment [3], in [4], in experiment [12] and in experiment [7] was over 100 µM throughout. For the same compound, the TGI in experiment [8], in [13], in experiment [9] and in experiment [10] was over 100 µM each time.

As for `OC1C2CN3CCN(C2)CC1(c1ccccc1)C3` (stereo not drawn), the TGI in experiment [2], in experiment [4], in experiment [5], in [12], in experiment [7] and in experiment [8] was over 100 µM throughout. Moreover, the TGI in [13], in [9], in experiment [10] and in experiment [11] was over 100 µM throughout.

Regarding `Cn1c2ccccc2n2c(=O)c(-c3ccc(Cl)cc3)nnc12`, the TGI in experiment [1], in experiment [2], in experiment [3], in experiment [4], in experiment [6] and in experiment [12] was over 100 µM in each case. Moreover, the TGI in experiment [7], in experiment [13], in experiment [9], in [10] and in experiment [11] was over 100 µM throughout.

On to `COc1nc2ncc([C@@H](OC(C)=O)[C@@H](COC(C)=O)OC(C)=O)nc2c(=O)n1C`, for which the TGI in [1], in experiment [2], in experiment [4], in experiment [5], in experiment [6] and in [12] was over 100 µM each time. In addition, the TGI in experiment [7], in [8], in experiment [13], in experiment [9], in [10] and in experiment [11] was over 100 µM in each case.

On to `Nc1nc(N)c2cc(-c3cc4ccccc4[nH]3)ccc2n1`, for which the TGI in experiment [1] was over 100 µM; in experiment [2], 95 µM; in experiment [4] it was over 100 µM; in experiment [6] it was 45.8 µM; in experiment [12], 42.4 µM; in [7], over 100 µM. In addition, the TGI was 32.4 µM in experiment [8]; 36.4 µM in experiment [13]; over 100 µM in [9]; over 100 µM in experiment [10]; 32.9 µM in experiment [11].

As for `Cc1ccc(S(=O)(=O)N(CC(O)COc2ccccc2)c2c(F)c(F)c(F)c(F)c2F)cc1` (stereo not drawn), the TGI in experiment [2] was determined as 35.3 µM; in experiment [3] it was 34.5 µM; in experiment [4], 44 µM; in experiment [6], 30.3 µM; in [7] it was 32.8 µM; in experiment [8], 12.7 µM. Also, the TGI stood at 30 µM in experiment [13], 37.7 µM in experiment [9], 27.9 µM in experiment [10] and 25.1 µM in experiment [11].

Consider `CCN(CC)C1=Nc2ccccc2-n2ccnc2C1`, for which the TGI in [1], in [2], in experiment [3], in [4], in experiment [5] and in experiment [6] was over 100 µM each time. Also, the TGI in experiment [12], in experiment [7], in experiment [13], in experiment [9], in experiment [10] and in experiment [11] was over 100 µM each time.

Regarding `O=c1[nH]c2c(C(F)(F)F)c(Cl)c(-c3ccccc3)nc2o1`, the TGI in [1] was 34 µM; in experiment [2] it was 41.6 µM; in [3] it was over 100 µM; in experiment [4], 38.4 µM; in experiment [5] it was 84.3 µM; in experiment [6], 69.8 µM. For the same compound, the TGI in [12] is over 100 µM; in [7] it was over 100 µM; in experiment [13], 52.7 µM; in experiment [9], 32.4 µM; in [10], 85.6 µM; in experiment [11], over 100 µM.

Turning to `C[N+](C)(N)Cc1nc(-c2ccc(Cl)cc2)no1`, the TGI in [1], in experiment [2], in [4], in [5], in experiment [6] and in experiment [12] was over 100 µM in each case. Also, the TGI in experiment [7], in experiment [8], in experiment [13], in experiment [9] and in experiment [10] was over 100 µM each time.

For `O=C1C(NS(=O)(=O)c2ccccc2)=C(n2ccnc2)C(=O)c2ccccc21`, the TGI in experiment [1], in experiment [2], in experiment [4], in experiment [5], in [6] and in [12] was over 100 µM each time. Also, the TGI in experiment [7], in experiment [8], in experiment [13], in [9], in [10] and in [11] was over 100 µM in each case.

Take `Cc1cc2c3c(c1)S(=O)(=O)c1cc(Cl)ccc1N3CCC2`: the TGI in experiment [1], in [2], in experiment [3], in experiment [4], in experiment [5] and in experiment [6] was over 100 µM in each case. Besides, the TGI in experiment [7], in [13], in [9] and in experiment [11] was over 100 µM each time.
